Results from patent US6747061B2, “N-substituted dithiocarbamates for the treatment of biological disorders” (AtheroGenics, Inc., priority 2000, dated 2004).
Like-named read-outs stand apart in the source and are kept apart here.

Legend:
[1] = system: SNU-C5 colorectal carcinoma cells; test: Anti-proliferative effect on SNU-C5 cells (CellTiter96); format: cell-based; settings: read-out: proliferation, percent of control; for activity at 1 µM: NDE 1 μM; for activity at 10 µM: NDE 10 μM; for activity at 100 µM: NDE 100 μM
Protocol: (§1) All primary cells and cell lines were commercially available. The transformed cell lines were grown in Dulbecco's Modified Eagle Media supplemented with 2 mM L-glutamine, 50 I.U. penicillin, 50 μg/ml streptomycin, nonessential amino acids and 10% heat-inactivated fetal bovine serum. HASM, HAEC and NHBE cells were cultured exactly as described by the commercial provider (Clonetics, San Diego, Calif.). All cell lines were grown at 37° C. in 5% CO2, with the media being changed every 48 hours.
(§2) For the experimental assays, cells were plated in 96-well plates and grown until ˜35% confluency was achieved. For the transformed cell lines, cells were plated at low density and grown for 72 hours prior to being stimulated, whereas the non-transformed cells were plated at a higher density and grown for 24 hours prior to being stimulated.
(§3) Cells were treated with dithiocarbamate (0.1-100 μM)±5FU (0.01-10 μM) and retreated after 48 hours when media was changed. Cell growth was assessed using the CellTiter96® assay system from Promega (Madison, Wis.). Each experimental condition was performed in triplicate or quadruplicate, with the number of experiments for each cell line being three.
(§4) Statistical significance was assessed using an ANOVA with the appropriate post-hoc analysis as well as Students t-tests. *=p<0.05 when compared to control-treated (DMSO) cells. #=p<0.05 when compared to 5FU-treated cells.

[2] = system: DLD-1 colorectal carcinoma cells; test: Anti-proliferative effect on DLD-1 cells (CellTiter96); format: cell-based; settings: Homo sapiens, read-out: proliferation, percent of control; for activity at 1 µM: NDE 1 μM; for activity at 10 µM: NDE 10 μM; for activity at 100 µM: NDE 100 μM
Protocol: as §1, §2, §3, §4

VCAM-1 = VCAM-1 assay: enzyme immunoassay of TNF-α induced VCAM-1 expression in endothelial cells; format: cell-based, Human; settings: Homo sapiens, Endothelial cell; HAEC, TNF-α 1 ng/ml, approximately 16 hours; read-out: VCAM-1 IC50
Protocol: The VCAM-1 assay is an enzyme immunoassay to detect tumor necrosis factor alpha (TNF-α) induced Vascular Adhesion Molecule (VCAM-1) expression in endothelial cells.
Human endothelial cells (HAEC) were purchased from Clonetics and maintained in EGM media (Clonetics) supplemented with 5% fetal bovine serum (FBS). In a typical experiment, cells were seeded in 96-well plates. The next day cells were stimulated with TNF-α (1 ng/ml) purchased from Boehringer Mannheim in the presence or absence of compounds dissolved in dimethylsulphoxide (DMSO). To establish a dose curve for each compound, four concentrations in 2 fold increments were used. Cells were exposed to TNF-α and compounds for approximately 16 hours. The next day, cells were examined under microscope to score for visual signs of toxicity.
Media was discarded and the cells were washed once with Hanks buffered saline solution (HBSS)/phosphate buffered solution (PBS) 91:1). Primary mouse monoclonal antibody against VCAM-1 purchased from Southern Biotechnology Associates (0.25 μg/ml in HBSS/PBS+5% FBS) was added and incubated at 37° C. for 30 minutes. Cells were washed with HBSS/PBS three times, and secondary antibody horse radish peroxidase (HRP)-conjugated goat anti-mouse IgG purchased from Southern Biotechnology Associates (1:500 in HBSS/PBS+5% FBS) was added and incubated at 37° C. for 30 minutes. Cells were washed with HBSS/PBS four times and peroxidase substrate 3.3′,5,5′-tetramethyl-benzidine (TMB) was added and incubated in the dark at room temperature until there was adequate blue color development. The length of incubation time was typically 5-15 minutes. 2 N sulfuric acid was added to stop the color development and the data was collected by reading the absorbance at O.D. 450 nm. The result was expressed as the percentage of control sample (cells stimulated by TNF without any compound).

eotaxin = test: Eotaxin assay: enzyme immunoassay of TNF-α and IL-4 induced eotaxin expression in BEAS-2B cells; format: cell-based; settings: Homo sapiens, TNF 10 ng/ml + IL-4, approximately 16 hours
Protocol: The eotaxin assay is an enzyme immunoassay to measure tumor necrosis factor alpha (TNF-α) and interleukin-4 (IL-4) induced expression of eotaxin in a human epithelial cell line (BEAS-2B).
BEAS-2B cells purchased from ATCC and maintained in DMEM/F12 plus 10% serum and penicillin plus streptomycin. In a typical experiment, cells were seeded in 96-well plates. The next day cells were stimulated with TNF (10 ng/ml)+IL-4 ([…]) in the presence or absence of compounds dissolved in dimethylsulphoxide (DMSO) in DMEM/F12 plus 1% rabbit serum albumin (RSA). To establish a dose curve for each compound, three concentrations in 2 fold increments were used. Cells were exposed to cytokines and compounds for approximately 16 hours. The next day, the cells were examined under microscope to score for visual signs of toxicity. The culture media was used to measure eotaxin level.
100 μl of anti-human eotaxin monoclonal antibody (3 μg/ml) purchased from R & D Systems was used to coat 96-well plates overnight at room temperature. […] 2N sulphuric acid stopped the color development and data were collected by a microplate reader set at O.D. 450 nm. The results were expressed as the percentage of control sample (cells stimulated by TNF without any compound).

COC(=O)CCCSC(=S)NCC1CCCO1 (centres unmarked) [NDE, 4-(tetrahydrofuran-2-ylmethylthiocarbamoylsulfanyl)-butyric acid methyl ester]
activity at 1 µM ([1]; 24 HOURS): 138 ± 24.2% | activity at 1 µM ([1]; 48 HOURS): 105 ± 7.42% | activity at 1 µM ([1]; 72 HOURS): 127 ± 16.4% | activity at 10 µM ([1]; 24 HOURS): 93.4 ± 15.9% | activity at 10 µM ([1]; 48 HOURS): 70.5 ± 8.42% | activity at 10 µM ([1]; 72 HOURS): 59.2 ± 4.1% | activity at 100 µM ([1]; 24 HOURS): 60 ± 10.8% | activity at 100 µM ([1]; 48 HOURS): 26.3 ± 8.64% | activity at 100 µM ([1]; 72 HOURS): 13.6 ± 1.31% | activity at 1 µM ([2]; 24 HOURS): 116 ± 3.72% | activity at 1 µM ([2]; 48 HOURS): 107 ± 7.55% | activity at 1 µM ([2]; 72 HOURS): 133 ± 10.3% | activity at 10 µM ([2]; 24 HOURS): 97.1 ± 1.79% | activity at 10 µM ([2]; 48 HOURS): 104 ± 13.3% | activity at 10 µM ([2]; 72 HOURS): 142 ± 14.9% | activity at 100 µM ([2]; 24 HOURS): 53.8 ± 5.28% | activity at 100 µM ([2]; 48 HOURS): 39.8 ± 6.27% | activity at 100 µM ([2]; 72 HOURS): 0.27 ± 0.27% | IC50 (VCAM-1): 1.5 µM | IC50 (eotaxin): 6 µM
